Laboratory results taken from PMC12064818, “A general assay platform to study protein pharmacology using ligand-dependent structural dynamics” (Nature Communications, 2025).
Where two headings read alike, the source gives them in different places.

How the values were obtained:
[1] = target: FLuc-C-HiBiT (firefly luciferase) (Photinus pyralis, UniProt P08659, form not given/L550V); experiment: SDR assay, FLuc-C-HiBiT; conditions: SDR max. response, clade S
[2] = target: FLuc-C-NLuc (firefly luciferase) (Photinus pyralis, UniProt P08659, form not given/L550V); experiment: SDR assay, FLuc-C-NLuc; conditions: - ATP
Chain of FLuc-C-NLuc (firefly luciferase) (P08659 2-550 L550V, form open): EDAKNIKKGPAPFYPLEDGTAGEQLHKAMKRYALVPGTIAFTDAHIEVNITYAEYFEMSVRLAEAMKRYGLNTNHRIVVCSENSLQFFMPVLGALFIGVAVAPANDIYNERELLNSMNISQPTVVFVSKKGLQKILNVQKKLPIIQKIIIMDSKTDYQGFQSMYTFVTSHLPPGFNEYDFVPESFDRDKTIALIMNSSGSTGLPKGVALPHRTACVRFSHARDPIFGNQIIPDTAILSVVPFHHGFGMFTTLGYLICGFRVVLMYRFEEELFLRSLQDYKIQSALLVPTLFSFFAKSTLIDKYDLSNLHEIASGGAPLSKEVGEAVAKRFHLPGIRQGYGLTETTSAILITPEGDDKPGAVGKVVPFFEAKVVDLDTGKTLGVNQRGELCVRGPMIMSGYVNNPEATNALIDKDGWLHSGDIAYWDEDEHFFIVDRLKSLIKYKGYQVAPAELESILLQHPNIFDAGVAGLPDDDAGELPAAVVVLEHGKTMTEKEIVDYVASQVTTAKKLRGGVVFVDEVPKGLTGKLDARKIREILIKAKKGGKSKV

[3] = target: T1, NLuc (Oplophorus gracilirostris, UniProt Q9GV45, A31E/A60N/A81I/F95D/I117V/K70R/L54V/L99Q/M102K/N193R/P142E/Q151K/Q38R/Q45L/V71I/Y165I); format: biochemical; conditions: - ATP
T1 construct: His tag (inferred from IMAC purification); made in house; host or cells: E. coli
T1 sequence (Q9GV45 other isoform, or with tags, fused parts or gaps with the stated changes): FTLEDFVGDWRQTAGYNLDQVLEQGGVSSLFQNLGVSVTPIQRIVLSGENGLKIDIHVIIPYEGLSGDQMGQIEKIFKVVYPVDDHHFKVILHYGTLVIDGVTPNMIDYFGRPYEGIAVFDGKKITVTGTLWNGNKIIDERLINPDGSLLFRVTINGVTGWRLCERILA
Method: Compounds and controls were added to plates as described in Supplementary Data 8. Nano-Glo luciferase assay reagent (Promega) was prepared fresh according to manufacturer’s protocol, filtered and added at 3 μL per well across assay plates with a BioRaptr2 dispenser. Enzyme was incubated with Nano-Glo reagent for 10 min and NLuc luminescence was read on a ViewLux CCD imager (PerkinElmer), with 1 s exposure with medium gain and 2x binning. Data were normalized to average no enzyme control as 100% enzyme inhibition and average DMSO neutral control. See Supplementary Table 4 for additional details.
Supplementary Table 4. […]
Sequence Param eter Value Description […]
5 Detector ViewLux Read plate lum inescence (Exposure = 1- 10 sec; Gain = Medium -high; Speed = Slow;
Dispensing solution was diluted in 1X PBS, pH 7.4.
NanoLuc luciferase (NLuc) enzym atic lum inescence assay […]
Nano-Glo luciferase assay reagent (Prom ega, Cat # N1120) prepared according to m anufacturer’s recom m endations,
4 com ponents stored at -30 °C until use, and reagent prepared fresh for each assay.
syringe filter prior to dispense.

[4] = target: P. pyralis FLuc (Photinus pyralis, UniProt P08659); experiment: FLuc enzymatic luminescence assay, P. pyralis FLuc; format: biochemical; conditions: FLuc enzymatic assay; for IC50: read-out: IC50 or SDR50 (mM) FLuc E
Chain of P. pyralis FLuc (P08659 whole entry): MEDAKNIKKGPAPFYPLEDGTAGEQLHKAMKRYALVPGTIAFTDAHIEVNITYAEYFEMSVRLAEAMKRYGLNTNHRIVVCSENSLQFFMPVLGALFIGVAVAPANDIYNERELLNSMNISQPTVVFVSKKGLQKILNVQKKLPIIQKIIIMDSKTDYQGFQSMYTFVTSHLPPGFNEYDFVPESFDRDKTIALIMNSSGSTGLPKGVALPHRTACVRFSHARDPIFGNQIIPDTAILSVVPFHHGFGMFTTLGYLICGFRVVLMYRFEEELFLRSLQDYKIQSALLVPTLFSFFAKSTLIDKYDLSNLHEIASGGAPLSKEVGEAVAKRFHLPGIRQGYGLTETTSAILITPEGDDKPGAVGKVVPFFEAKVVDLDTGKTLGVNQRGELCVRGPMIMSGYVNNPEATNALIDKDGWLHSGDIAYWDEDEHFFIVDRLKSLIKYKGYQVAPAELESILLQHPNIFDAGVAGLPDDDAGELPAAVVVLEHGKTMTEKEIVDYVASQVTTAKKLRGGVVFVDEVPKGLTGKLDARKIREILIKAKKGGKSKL
Method in brief: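 Runs with and without 10 µM ATP: compounds were pre-incubated with FLuc (1–10 nM, PBS pH 7.4) at ambient temperature, light-protected, for 30–60 min. Luminescence was imaged 5 min after adding 10 µM D-luciferin (final). Inhibition was scaled between DMSO neutral and no-enzyme controls.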

Chain of FLuc-C-HiBiT (firefly luciferase) (P08659 2-550 L550V, form open): as the sequence (P08659 2-550 L550V, form open) above

| SMILES | % Activity (max response, + ATP) [1] | % Activity (max response, - ATP) [1] | Efficacy (%) FLuc-C-NLuc SDR (-ATP) [2] | Efficacy (%) NLuc (- ATP) [3] | Efficacy (%) FLuc E ([4]; Clade S follow-up) | pIC50 or pSDR50 FLuc E ([4]; Clade S follow-up) | IC50 ([4]; Clade S follow-up) | pIC50 or pSDR50 FLuc E [4] | IC50 [4] |
| --- | --- | --- | --- | --- | --- | --- | --- | --- | --- |
| CC(NC(=O)C1CCN(C(=O)c2ncn3c2COC(c2ccc(F)cc2)C3)CC1)c1ccccc1 (stereo not drawn) [NCGC00449824-01] | 0.00% | 0.00% | 0.00% | 0.00% | -12.35% |  |  |  |  |
| Cc1ccc(C2Cn3cnc(C(=O)N4CCC(C(=O)NCc5cc(F)ccc5F)CC4)c3CO2)cc1 (stereo not drawn) [NCGC00449900-01] | 59.08% | 0.00% | 0.00% | 0.00% | -40.44% | 4.96 | 0.0111 mM |  |  |
| CC(NC(=O)C1CCN(C(=O)c2ncn3c2COC(c2ccc(Cl)cc2)C3)CC1)c1ccccc1 (stereo not drawn) [NCGC00449853-01] | 0.00% | 0.00% | 0.00% | 0.00% | -16.52% |  |  |  |  |
| O=C(NCc1ccc(F)cc1F)C1CCN(C(=O)c2ncn3c2COC(c2ccc(F)cc2)C3)CC1 (stereo not drawn) [NCGC00449819-01] | 18.59% | 0.00% | 0.00% | 0.00% | -12.89% |  |  |  |  |
| O=C(NC1CCCCCCC1)C1CCN(C(=O)c2ncn3c2COC(c2ccc(F)cc2)C3)CC1 (stereo not drawn) [NCGC00449810-01] | 34.91% | 0.00% | 0.00% | 0.00% | -21.88% |  |  | 4.81 | 0.0157 mM |
| O=C(NCc1ccccc1Cl)C1CCN(C(=O)c2ncn3c2COC(c2ccccc2)C3)CC1 (stereo not drawn) [NCGC00449786-01] | 336.94% | 0.00% | 0.00% | 15.00% | -73.36% |  |  | 5.01 | 0.00988 mM |
| O=C(NCc1ccccc1)C1CCN(C(=O)c2ncn3c2COC(c2ccc(Cl)cc2)C3)CC1 (stereo not drawn) [NCGC00449849-01] | 28.50% | 0.00% | 0.00% | 0.00% | -35.02% | 4.91 | 0.0124 mM |  |  |
| Cc1ccc(C2Cn3cnc(C(=O)N4CCC(C(=O)NC5CCCC5)CC4)c3CO2)cc1 (stereo not drawn) [NCGC00449881-01] | 73.27% | 0.00% | 0.00% | 0.00% | -51.50% | 4.96 | 0.0111 mM |  |  |
| Cc1ccccc1CNC(=O)C1CCN(C(=O)c2ncn3c2COC(c2ccccc2)C3)CC1 (stereo not drawn) [NCGC00449798-01] | 370.72% | 0.00% | 0.00% | 0.00% | -85.12% |  |  | 5.26 | 0.00555 mM |
| O=C(NCCc1ccccc1)C1CCN(C(=O)c2ncn3c2COC(c2ccc(F)cc2)C3)CC1 (stereo not drawn) [NCGC00449826-01] | 27.00% | 0.00% | 0.00% | 0.00% | -26.42% |  |  |  |  |
| COc1ccc(C2Cn3cnc(C(=O)N4CCC(C(=O)NC5CCC(C)CC5)CC4)c3CO2)cc1 (stereo not drawn) [NCGC00449861-01] | 14.50% | 0.00% | 0.00% | 0.00% | 0.00% |  |  |  |  |
| COCCCNC(=O)C1CCN(C(=O)c2ncn3c2COC(c2ccc(OC)cc2)C3)CC1 (stereo not drawn) [NCGC00449877-01] | 0.00% | 0.00% | 0.00% | 0.00% | 0.00% |  |  |  |  |
